# Experimental data as given in patent publication US8530493B2, “Indolopyridines as Eg5 kinesin modulators” (4SC AG, priority 2006, dated 2013).
# System: RKO p21 uninduced (proliferating) colon adenocarcinoma cells
# Experiment: Alamar Blue cell viability assay, RKO p21 uninduced (proliferating)
# Format: cell-based
# Conditions: Homo sapiens, Table B3, anti-proliferative/cytotoxic activity, 72 hours, read-out: −log EC50 RKO p21 uninduced (proliferating) (converted)
# In short: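 Viability read by Alamar Blue fluorescence (ex 544, em 590 nm), normalised to untreated wells, after 72 h, 37° C, 5% CO2 compound exposure in triplicate. Cells were uninduced (no Ponasterone A), proliferating RKO colon carcinoma p27 or p21 subclones in DMEM with 10% FCS; values are −log EC50 (mol/l).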
row,Compound,EC50 [nM]
1,"COc1ccc2[nH]c3c(c2c1)C[C@@]1(C)C(=O)N(CCCN2CCN(C)CC2)C(=O)N1[C@@H]3c1cccc(O)c1 (racemic) [Example 150, (3aSR,10RS)-10-(3-Hydroxy-phenyl)-6-methoxy-3a-methyl-2-[3-(4-methyl-piperazin-1-yl)-propyl]-3a,4,9,10-tetrahydro-2,9,10a-triaza-cyclopenta[b]fluorene-1,3-dione]",≤ 39.8
2,"CNCCCN1C(=O)N2[C@H](c3cccc(O)c3)c3[nH]c4cc(F)c(OC)cc4c3C[C@@]2(C)C1=O (racemic) [Example 303, (3aSR,10RS)-7-Fluoro-10-(3-hydroxy-phenyl)-6-methoxy-3a-methyl-2-(3-methylamino-propyl)-3a,4,9,10-tetrahydro-2,9,10a-triaza-cyclopenta[b]fluorene-1,3-dione]",39.8 to 251
3,"C[C@@]12Cc3c([nH]c4cc(F)c(Cl)cc34)[C@@H](c3cccc(O)c3)N1C(=O)N(CCNC1CCC1)C2=O (racemic) [Example 344, (3aSR,10RS)-6-Chloro-2-(2-cyclobutylamino-ethyl)-7-fluoro-10-(3-hydroxy-phenyl)-3a-methyl-3a,4,9,10-tetrahydro-2,9,10a-triaza-cyclopenta[b]fluorene-1,3-dione]",≤ 39.8
4,"C[C@@]12Cc3c([nH]c4ccc(Cl)cc34)[C@@H](c3cccc(O)c3)N1C(=O)N(CCCN1CCCCCC1)C2=O (racemic) [Example 180, (3aSR,10RS)-2-(3-Azepan-1-yl-propyl)-6-chloro-10-(3-hydroxy-phenyl)-3a-methyl-3a,4,9,10-tetrahydro-2,9,10a-triaza-cyclopenta[b]fluorene-1,3-dione]",≤ 39.8
5,"CN1CCN(CCN2C(=O)N3[C@H](c4cccc(O)c4)c4[nH]c5cc(F)c(Cl)cc5c4C[C@@]3(C)C2=O)CC1 (racemic) [Example 359, (3aSR,10RS)-6-Chloro-7-fluoro-10-(3-hydroxy-phenyl)-3a-methyl-2-[2-(4-methyl-piperazin-1-yl)-ethyl]-3a,4,9,10-tetrahydro-2,9,10a--triaza-cyclopenta[b]fluorene-1,3-dione]",39.8 to 251
6,"C[C@@]12Cc3c([nH]c4cc(F)c(Cl)cc34)[C@@H](c3cccc(O)c3)N1C(=O)N(CCCN1CCCCCC1)C2=O (racemic) [Example 483, (3aSR,10RS)-2-(3-Azepan-1-yl-propyl)-6-chloro-7-fluoro-10-(3-hydroyx-phenyl)-3a-methyl-3a,4,9,10-tetrahydro-2,9,10a-triaza-cyclopenta[b]fluorene-1,3-dione]",39.8 to 251
7,"CCN(C)CCN1C(=O)N2[C@H](c3cccc(O)c3)c3[nH]c4cc(F)c(OC)cc4c3C[C@@]2(C)C1=O (racemic) [Example 257, (3aSR,10RS)-2-[2-(Ethyl-methyl-amino)-ethyl]-7-fluoro-10-(3-hydroxy-phenyl)-6-methoxy-3a-methyl-3a,4,9,10-tetrahydro-2,9,10a-triaza-cyclopenta[b]fluorene-1,3-dione]",39.8 to 251
8,"CN1CCN(CCN2C(=O)N3[C@H](c4cccc(O)c4)c4[nH]c5ccc(OC(F)F)cc5c4C[C@@]3(C)C2=O)CC1 (racemic) [Example 294, (3aSR,10RS)-6-(1,1-Difluoro-methoxy)-10-(3-hydroxy-phenyl)-3a-methyl-2-[2-(4-methyl-piperazin-1-yl)-ethyl}-3a,4,9,10-tetrahydro-2,9,10a-triaza-cyclopenta[b]fluorene-1,3-dione]",39.8 to 251
9,"CCOc1ccc2[nH]c3c(c2c1)C[C@@]1(C)C(=O)N(CCN(C)C(C)C)C(=O)N1[C@@H]3c1cccc(O)c1 (racemic) [Example 163, (3aSR,10RS)-6-Ethoxy-10-(3-hydroxy-phenyl)-2-[2-(isopropyl-methyl-amino)-ethyl]-3a-methyl-3a,4,9,10-tetrahydro-2,9,10a-triaza-cyclopenta[b]fluorene-1,3-dione]",≤ 39.8
10,"CC(C)NCCCN1C(=O)N2[C@H](c3cccc(O)c3)c3[nH]c4ccc(Cl)cc4c3C[C@@]2(C)C1=O (racemic) [Example 392, (3aSR,10RS)-6-Chloro-10-(3-hydroxy-phenyl)-2-(3-isopropylamino-propyl)-3a-methyl-3a,4,9,10-tetrahydro-2,9,10a-triaza-cyclopenta[b]fluorene-1,3-dione]",≤ 39.8
11,"CN1CCN(CCCN2C(=O)N3[C@H](c4cccc(O)c4)c4[nH]c5ccc(Br)cc5c4C[C@@]3(C)C2=O)CC1 (racemic) [Example 375, (3aSR,10RS)-6-Bromo-10-(3-hydroxy-phenyl)-3a-methyl-2-[3-(4-methyl-piperazin-1-yl)-propyl]-3a,4,9,10-tetrahydro-2,9,10a-triaza-cyclopenta[b]fluorene-1,3-dione]",≤ 39.8
12,"CC(C)NCCCN1C(=O)N2[C@H](c3cccc(O)c3)c3[nH]c4cc(F)c(Cl)cc4c3C[C@@]2(C)C1=O (racemic) [Example 458, (3aSR,10RS)-6-Chloro-7-fluoro-10-(3-hydroxy-phenyl)-2-(3-isopropylamino-propyl)-3a-methyl-3a,4,9,10-tetrahydro-2,9,10a-triaza-cyclopenta[b]fluorene-1,3-dione]",39.8 to 251
13,"CCOc1ccc2[nH]c3c(c2c1)C[C@@]1(C)C(=O)N(CCN2CC=CCC2)C(=O)N1[C@@H]3c1cccc(O)c1 (racemic) [Example 165, (3aSR,10RS)-2-[2-(3,6-Dihydro-2H-pyridin-1-yl)-ethyl]-6-ethoxy-10-(3-hydroxy-phenyl)-3a-methyl-3a,4,9,10-tetrahydro-2,9,10a-triaza-cyclopenta[b]fluorene-1,3-dione]",39.8 to 251
14,"CCNCCCN1C(=O)N2[C@H](c3cccc(O)c3)c3[nH]c4ccc(OCC)cc4c3C[C@@]2(C)C1=O (racemic) [Example 187, (3aSR,10RS)-6-Ethoxy-2-(3-ethylamino-propyl)-10-(3-hydroxy-phenyl)-3a-methyl-3a,4,9,10-tetrahydro-2,9,10a-triaza-cyclopenta[b]fluorene-1,3-dione]",39.8 to 251
15,"C=CCNCCN1C(=O)N2[C@H](c3cccc(O)c3)c3[nH]c4ccc(Br)cc4c3C[C@@]2(C)C1=O (racemic) [Example 383, (3aSR,10RS)-2-(2-Allylamino-ethyl)-6-bromo-10-(3-hydroxy-phenyl)-3a-methyl-3a,4,9,10-tetrahydro-2,9,10a-triaza-cyclopenta[b]fluorene-1,3-dione]",≤ 39.8
16,"C=CCNCCCN1C(=O)N2[C@H](c3cccc(O)c3)c3[nH]c4ccc(OC(F)F)cc4c3C[C@@]2(C)C1=O (racemic) [Example 206, (3aSR,10RS)-2-(3-Allylamino-propyl)-6-(1,1-difluoro-methoxy)-10-(3-hydroxy-phenyl)-3a-methyl-3a,4,9,10-tetrahydro-2,9,10a-triaza-cyclopenta[b]fluorene-1,3-dione]",39.8 to 251
17,"COc1cc2c3c([nH]c2cc1F)[C@@H](c1cccc(O)c1)N1C(=O)N(CCN2CCCC2)C(=O)[C@]1(C)C3 (racemic) [Example 261, (3aSR,10RS)-7-Fluoro-10-(3-hydroxy-phenyl)-6-methoxy-3a-methyl-2-(2-pyrrolidin-1-yl-ethyl)-3a,4,9,10-tetrahydro-2,9,10a-triaza-cyclopenta[b]fluorene-1,3-dione]",39.8 to 251
18,"CCN(CC)CCN1C(=O)N2[C@H](c3cccc(O)c3)c3[nH]c4cc(F)c(Cl)cc4c3C[C@@]2(C)C1=O (racemic) [Example 336, (3aSR,10RS)-6-Chloro-2-(2-diethylamino-ethyl)-7-fluoro-10-(3-hydroyx-phenyl)-3a-methyl-3a,4,9,10-tetrahydro-2,9,10a-triaza-cyclopenta[b]fluorene-1,3-dione]",39.8 to 251
19,"CCN(CC)CCN1C(=O)N2[C@H](c3cccc(O)c3)c3[nH]c4cc(F)c(OC)cc4c3C[C@@]2(C)C1=O (racemic) [Example 258, (3aSR,10RS)-2-(2-Diethylamino-ethyl)-7-fluoro-10-(3-hydroxy-phenyl)-6-methoxy-3a-methyl-3a,4,9,10-tetrahydro-2,9,10a-triaza-cyclopenta[b]fluorene-1,3-dione]",39.8 to 251
20,"CCN(CC)CCN1C(=O)N2[C@H](c3cccc(O)c3)c3[nH]c4ccc(Br)cc4c3C[C@@]2(C)C1=O (racemic) [Example 385, (3aSR,10RS)-6-Bromo-2-(2-diethylamino-ethyl)-10-(3-hydroxy-phenyl)-3a-methyl-3a,4,9,10-tetrahydro-2,9,10a-triaza-cyclopenta[b]fluorene-1,3-dione]",≤ 39.8
21,"CN(C)CCCN1C(=O)N2[C@H](c3cccc(O)c3)c3[nH]c4ccc(Br)cc4c3C[C@@]2(C)C1=O (racemic) [Example 230, (3aSR,10RS)-6-Bromo-2-(3-dimethylamino-propyl)-10-(3-hydroyx-phenyl)-3a-methyl-3a,4,9,10-tetrahydro-2,9,10a-triaza-cyclopenta[b]fluorene-1,3-dione]",≤ 39.8
22,"COc1cc2c3c([nH]c2cc1F)[C@@H](c1cccc(O)c1)N1C(=O)N(CCCN2CCCCCC2)C(=O)[C@]1(C)C3 (racemic) [Example 329, (3aSR,10RS)-2-(3-Azepan-1-yl-propyl)-7-fluoro-10-(3-hydroxy-phenyl)-6-methoxy-3a-methyl-3a,4,9,10-tetrahydro-2,9,10a-triaza-cyclopenta[b]fluorene-1,3-dione]",39.8 to 251
23,"CNCCCN1C(=O)N2[C@H](c3cccc(O)c3)c3[nH]c4ccc(Br)cc4c3C[C@@]2(C)C1=O (racemic) [Example 211, (3aSR,10RS)-6-Bromo-10-(3-hydroyx-phenyl)-3a-methyl-2-(3-methylamino-propyl)-3a,4,9,10-tetrahydro-2,9,10a-triaza-cyclopenta[b]fluorene-1,3-dione]",≤ 39.8
24,"CC(C)N(C)CCN1C(=O)N2[C@H](c3cccc(O)c3)c3[nH]c4ccc(OC(F)F)cc4c3C[C@@]2(C)C1=O (racemic) [Example 278, (3aSR,10RS)-6-(1,1-Difluoro-methoxy)-10-(3-hydroxy-phenyl)-2-[2-(isopropyl-methyl-amino)-ethyl]-3a-methyl-3a,4,9,10-tetrahydro-2,9,10a-triaza-cyclopenta[b]fluorene-1,3-dione]",≤ 39.8
